Assay results taken from BindingDB's records for doi:10.1021/jm048993p (Merck Research Laboratories, 2005).

Biological target: Peroxisome proliferator-activated receptor alpha (Mesocricetus auratus)
Test: Agonist activity against hamster Peroxisome proliferator activated receptor alpha

EC50: 460 nM
Compound: CCCc1cc2c(C(F)(F)F)noc2c(CCC)c1OC(C)(C)C(=O)O [2-(5,7-Dipropyl-3-trifluoromethyl-benzo[d]isoxazol-6-yloxy)-2-methyl-propionic acid]
